Data on two compounds can be found in patent publication US12102594B2, “Infusion bag of Midazolam for intravenous use” (Sun Pharmaceutical Industries Limited, priority 2019, dated 2024).

The structures appear in SMILES notation.

For series [1] the following is noted: cited from earlier work.
The nature of series [2]: Packaging material screening: Assay of Midazolam HCL Injection in autoclaved and unautoclaved infusion containers. Type of series: physicochemical. On the procedure: Manufacturing process: Bulk solution preparation: 80% of the batch size of water for injection (WFI) was collected at a temperature of 20° C. to 25° C. in stainless steel 316L manufacturing tank of suitable capacity. Nitrogen gas was purged to get dissolve oxygen content less than 1 mg/L (ppm), pressure of nitrogen gas and time of purging or flow rate of nitrogen gas were recorded. Sodium chloride was added and dissolved gradually followed by stirring for not less than 10 minutes to ensure complete solubilization and clarity of solution visually. While additional excipients were added as below, the purging was stopped. 1 w/w hydrochloric acid (35 mL/Kg) was added and stirred well for approximately 10 minutes. […] The pH was adjusted to 3.0±0.1 using sufficient quantity of 1 w/w hydrochloric acid and stirred for around 1 h after pH adjustment to ensure complete dissolution of drug, stabilization of pH and until the appearance of the solution was a clear colourless solution. The pH was adjusted at 3.4±0.2 using sufficient quantity of 1 w/w Sodium hydroxide solution, and the volume was made up with dissolved oxygen maintained WFI stored at 20° C. to 25° C. […]

Series [3] can be described thus: Adsorption behaviour of Midazolam in different bags at variable fill volume (HPLC assay). Type of series: physicochemical. The settings on record: 1 mg/mL, fill volumes 10, 20, 30, 40 ml. The procedure:
Method: Adsorption behaviour of Midazolam in different bags (IC-S′, IC-S and IC-PHC) was evaluated at four variable fill volumes, i.e. 10 ml, 20 ml, 30 ml and 40 ml. The assay values of autoclaved samples of Midazolam formulation were evaluated using an HPLC based assay method. […] At lowest fill volume, surface area to volume ratio was high resulting higher adsorption of API on contact layer of infusion bags. As fill volume increases surface area to volume ratio decreases leads to lower adsorption and higher assay values. This confirmed the physical adsorption of Midazolam in IC-S infusion bags. […] This also ruled out the possibility of Midazolam adsorption in IC-PHC infusion bags.

A short description of series [4]: Terminal sterilization in different packaging material: Midazolam potency by HPLC based assay. Type of series: physicochemical. The procedure: Method: Midazolam formulation samples (i) autoclaved and (ii) unautoclaved, were stored in different packaging materials, i.e. glass bottle, IC-H-AE-1, IC-S, IC-S′ and IC-PHC. Initial potency of Midazolam in such samples was tested using an HPLC based assay method.

Series [5] can be described thus: Potency loss at lower concentration 0.2 and 0.5 mg/mL in different infusion bags (HPLC assay). Type of series: physicochemical. On the procedure:
Method: Loss of potency of Midazolam was assessed using an HPLC based assay method for (i) autoclaved and (ii) unautoclaved formulations (0.2 mg/ml and 0.5 mg/ml) in glass bottle, IC-S infusion bag, IC-S′ infusion bag and IC-PHC infusion bag.

Take `Cc1ncc2n1-c1ccc(Cl)cc1C(c1ccccc1F)=NC2.Cl` [Midazolam hydrochloride, 8-chloro-6-(2-fluorophenyl)-1-methyl-4H-imidazo[1,5-a][1,4] benzodiazepine hydrochloride]: the “period over which diluted preparation was stable” value in series [1] (0.5 mg/ml, diluted with 5% dextrose solution and 0.9% sodium chloride, polyolefin bags, dark, room temperature (Hagan et al.)) is listed as 30 days. In addition, the “period over which diluted solution remained stable” value in series [1] (1 mg/ml diluted with 5% dextrose, polyvinyl chloride and polyolefin bags, regardless of storage conditions (Karlage et al.)) is reported as “about 27 days”.
As to `Cc1ncc2n1-c1ccc(Cl)cc1C(c1ccccc1F)=NC2` [Midazolam], the “loss in assay or content upon autoclaving and long term storage” value in series [2] (cyclo-olefin polymer or co-polymer as innermost layer of the infusion container) was “substantially no loss in assay”. The “loss of assay percentage immediately after autoclaving” value in series [2] (infusion bags with inner layer of low density polyethylene, polypropylene, polyolefin copolymer or ethylene propylene copolymer) is reported as “significant loss of assay percentage”. Also, the “impact of fill volume on potency” value in series [3] (IC-PHC infusion bags) is recorded as “no impact of fill volume on potency”. Further, the “assay of autoclaved sample vs fill volume” value in series [3] (IC-S infusion bags) is reported as “increasing trend with increasing fill volume”. For the same compound, in series [1] (1 mg/ml in 0.9% sodium chloride, polyvinyl chloride bags, fluorescent light, room temperature (McMullin et al.)), the period of stability result was “about 10 days”. In addition, the Midazolam potency loss entry in series [4] (IC-H-AE-1 infusion bags) is on record as “Potency loss was also not observed”. Besides, the “Midazolam potency, autoclaved vs un-autoclaved” value in series [4] (IC-PHC infusion bags) is “no significant change”. Moreover, the “Midazolam potency after autoclaving” value in series [4] (IC-S and IC-S′ infusion bags) is recorded as “found to decrease after autoclaving”. The potency loss entry in series [5] (IC-PHC infusion bags, 0.2 and 0.5 mg/mL) is recorded as “no potency loss”; in series [5] (IC-PHC infusion containers, 0.2 mg/mL), “no potency loss”; in series [5] (IC-PHC infusion containers, 0.5 mg/mL), “no potency loss”; in series [5] (IC-S and IC-S′ infusion bags, 0.2 and 0.5 mg/mL), “significant potency loss”.
